In US9388147B2 (Receptos, Inc., priority 2009, dated 2016):
pEC50: −log10 of the molar value. Like-named read-outs stand apart in the source and are kept apart here.

Experiments:
S1P5 = target: T1, S1P5 (Homo sapiens, UniProt Q9H228); test: Specificity over other S1P receptors: S1P5-bla TANGO U2OS assay; format: cell-based; details: read-out: S1P5 agonist value (EC50)
T1 construct: Tango fusion (own knowledge: protease cleavage site plus GAL4-VP16 transcription factor at the receptor's C-terminus); host or cells: U2OS (Tango -bla)
Protocol: (§1) Cells were seeded into 384-well black wall/clear bottom plates at 10^4 cells/well/19.5 μl assay media (DMEM-phenol free, 0.5% charcoal/dextran stripped serum, 2 mM glutamine, 0.1 mM NEAA, 1 mM Na-Pyruvate, 25 mM Hepes) and incubated for 18 hrs at 37° C. in 5% CO2. Dose response curves (10-point) were generated in 10 mM Hepes, 0.1% Pluronic F127, in the presence of Forskolin. Cells were treated with 0.5 μl compound in the presence of 2 μM Forskolin for 4 hrs at 37° C. The FRET-based β-lactamase fluorescent substrate (LiveBLAzer™-FRET B/G Loading Kit CC4-AM; Invitrogen) was prepared according to manufacturer's directions, and incubated with cells for 2 hrs at room temperature. Plates were read at Ex:410/Em:458 and Ex:410/Em:522, and the response ratio determined. Data was analyzed by non-linear regression to determine the EC50 for inhibition of Forskolin induced cAMP.
(§2) To assess compound specificity on other S1P receptors the following cell lines were used: S1P2 CRE-bla CHOK1, S1P3-Gα15 NFAT-bla HEK293T (Invitrogen), S1P4-bla TANGO U2OS (Invitrogen), S1P5-bla TANGO U2OS (Invitrogen). The same assay set up for S1P1 was used but without Forskolin. S1P4 and S1P5 assays were performed in FreeStyle Expression medium (Invitrogen). S1P5 cells were incubated for 48 hrs in prior to treatment with compound.

peripheral T-cell counts = test: Lymphopenia in rats, 3-5 day multiple dose regimen; format: in vivo, rat; details: female rats, oral, 24 h after final dose of a 3-5 day multiple dose regimen
Protocol: In rats: Female rats (Simonsen Laboratories, Gilroy Calif.) were housed in an ALAAC accredited facility and the research was approved by the facilities Institutional Animal Care and Use Committee (IACUC). The animals were acclimated to the laboratory for at least 5 days prior to initiation of experiments. Rats (n=3/compound/time-point) were dosed by oral gavage with 1 mg/kg compound formulated in a vehicle consisting of 5% DMS0/5% Tween 20 and 90% 0.1N HCL. Control rats were dosed PO with the vehicle. Whole blood was collected from isoflurane anesthetized rats via the retro-orbital sinus and terminal samples were collected by cardiac puncture into EDTA. Whole blood was incubated with mouse anti-rat CD32 (BD #550271), PE-mouse anti-rat CD45R/B220 (BD #554881), PECy5-mouse anti-rat CD4 (BD #554839), and APC-mouse anti-rat CD8a (eBioscience #17-0084) for 30 minutes on ice. Red blood cells were lysed using BD Pharm Lyse Lysing buffer (#555899) and white blood cells were analyzed with a BD FACSArray. Lymphopenia was expressed as the % of white blood cells that were CD4 or CD8 positive T cells. The overall lymphopenia response over 24 h was estimated by calculating the area under the effect curve (AUEC) using the linear trapezoidal rule.
(§3) The compounds listed in Table 6 were formulated as suspensions in a vehicle consisting of 0.5% carboxymethyl cellulose (Acros Organics) in purified water (pH adjusted to ˜2.2 with hydrochloric acid). The same formulation was used in the rat lymphopenia and toxicology studies described below. The concentration of each compound in suspension was verified to be within ±10% of the target concentration by HPLC-UV.
Prior to the conduct of toxicology studies, the effect of three to five daily doses of each compound on peripheral T-cell counts of female rats was determined (see lymphopenia measurements in rats above). In these lymphopenia studies, blood samples were collected onto EDTA at intervals after the final study dose. The collection times were not identical for each study, however, all studies included a sample collected 24 hours after the final dose. The lymphopenia data was used as a biomarker to select equally pharmacologically active doses for the subsequent toxicology study. […] The high dose in the toxicology study represented a ≧20-fold increment over the low dose.
(§4) The dose producing a 10% increase in lung to body weight ratio was interpolated from a plot of dose versus lung to body weight. The lymphopenia response was measured 24 hours following the final dose of a 3-5 day multiple dose regimen.

S1P1/EDG1 = S1P1/EDG1 (Homo sapiens, UniProt P21453); test: S1P1 CRE-bla CHOK1 reporter assay, inhibition of Forskolin induced cAMP; format: cell-based
Method in brief: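 Read-out is a FRET β-lactamase substrate (2 h, room temperature) after 4 h, 37 °C compound treatment under 2 μM Forskolin in stable S1P1-transfected CRE-bla CHO-K1 cells. Ten-point curves; non-linear regression gives EC50 for inhibition of Forskolin-stimulated cAMP.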

S1P2 = target: T2, S1P2 (Homo sapiens, UniProt O95136); test: Specificity over other S1P receptors: S1P2 CRE-bla CHOK1 reporter assay; format: cell-based; details: S1P2 CRE-bla CHOK1, without Forskolin; read-out: S1P2 agonist value (EC50)
T2 construct: expressed in transfected cells; host or cells: CRE-bla CHOK1
Protocol: as §1, §2

[1] = Evaluation of therapeutic index in rats: 5 or 14 day toxicology study, lung to body weight ratio; format: in vivo, Sprague-Dawley rat; details: for Dose Resulting in 10% increase in lung weight: rats, oral, 5 or 14 consecutive days, interpolated from dose versus lung to body weight; for TI 5 days: 5 day toxicology study in rats
Protocol: All studies were conducted in non-fasted male and female Sprague-Dawely rats (Simonsen Laboratories). Rats were housed in an AAALAC accredited facility and the research was approved by the facilities Institutional Animal Care and Use Committee (IACUC). The animals were acclimated to the laboratory for at least 5 days prior to initiation of experiments.
as §3
In the toxicology studies, three male and three female rats per group were assigned to dosing groups using body weight based randomization. A control group in each study received vehicle. All animals were dosed orally by gavage on 5 or 14-consecutive days at a dose volume of 5 mL/kg/day. The animals were observed daily for any manifestations of adverse effect. Twenty-four hours after the final study dose, the rats were anesthetized with isoflurane and a terminal blood sample was taken by intra-cardiac puncture for hematology and clinical chemistry evaluation (IDEXX Laboratories, Sacramento, Calif.). The lungs with trachea were collected, weighed, and then prepared for histology by perfusion with 10% neutral buffered formalin via the trachea. The internally fixed lungs were then preserved in 10% neutral buffered formalin and submitted for histological examination (IDEXX).
The dose of each compound resulting in a 10% increase in the lung to terminal body weight ratio was estimated for each compound by linear interpolation. The therapeutic index was estimated as the ratio of the dose producing 10% lung weight increase to the dose producing 50% T-Cell depletion.
as §4

S1P4 = target: T3, S1P4 (Homo sapiens, UniProt O95977); test: Specificity over other S1P receptors: S1P4-bla TANGO U2OS assay; format: cell-based; details: read-out: S1P4 agonist value (EC50)
T3 construct: Tango fusion (own knowledge: protease cleavage site plus GAL4-VP16 transcription factor at the receptor's C-terminus); host or cells: U2OS (Tango -bla)
T3 sequence (O95977 1-384): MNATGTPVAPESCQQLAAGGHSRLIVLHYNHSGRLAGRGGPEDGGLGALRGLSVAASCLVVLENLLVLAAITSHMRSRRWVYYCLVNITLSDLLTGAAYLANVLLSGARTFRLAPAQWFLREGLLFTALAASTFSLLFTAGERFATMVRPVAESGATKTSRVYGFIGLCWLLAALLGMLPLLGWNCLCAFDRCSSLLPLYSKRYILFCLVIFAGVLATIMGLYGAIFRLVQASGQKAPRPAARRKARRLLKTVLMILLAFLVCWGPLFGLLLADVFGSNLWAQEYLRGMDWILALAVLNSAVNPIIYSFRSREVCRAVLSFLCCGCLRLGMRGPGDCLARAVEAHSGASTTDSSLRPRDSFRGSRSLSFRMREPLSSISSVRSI
Protocol: as §1, §2

S1P3 = target: T4, S1P3 (Homo sapiens, UniProt Q99500); test: Specificity over other S1P receptors: S1P3-Gα15 NFAT-bla HEK293T reporter assay; format: cell-based; details: without Forskolin, read-out: S1P3 agonist value (EC50)
T4 construct: host or cells: NFAT-bla HEK293T
Protocol: as §1, §2

[2] = S1P1 CRE-bla CHOK1, with Forskolin, read-out: S1P1 agonist value (EC50)
[3] = agonist activity range, S1P1 CRE-bla CHOK1, 2 μM Forskolin, read-out: S1P1 ACTIVITY
[4] = therapeutic index: dose producing 10% lung weight increase / dose producing 50% T-cell depletion

T4 sequence (Q99500 whole entry): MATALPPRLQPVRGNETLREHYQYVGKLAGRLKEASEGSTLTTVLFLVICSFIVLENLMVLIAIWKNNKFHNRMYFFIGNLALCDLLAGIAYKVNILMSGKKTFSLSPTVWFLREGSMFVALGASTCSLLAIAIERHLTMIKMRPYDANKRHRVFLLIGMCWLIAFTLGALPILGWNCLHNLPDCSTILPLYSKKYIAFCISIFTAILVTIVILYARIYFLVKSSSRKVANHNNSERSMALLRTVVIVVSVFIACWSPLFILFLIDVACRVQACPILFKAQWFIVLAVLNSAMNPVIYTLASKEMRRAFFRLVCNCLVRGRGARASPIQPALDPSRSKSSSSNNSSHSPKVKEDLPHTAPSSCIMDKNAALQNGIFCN
T1 sequence (Q9H228 whole entry, the tested form may be a part): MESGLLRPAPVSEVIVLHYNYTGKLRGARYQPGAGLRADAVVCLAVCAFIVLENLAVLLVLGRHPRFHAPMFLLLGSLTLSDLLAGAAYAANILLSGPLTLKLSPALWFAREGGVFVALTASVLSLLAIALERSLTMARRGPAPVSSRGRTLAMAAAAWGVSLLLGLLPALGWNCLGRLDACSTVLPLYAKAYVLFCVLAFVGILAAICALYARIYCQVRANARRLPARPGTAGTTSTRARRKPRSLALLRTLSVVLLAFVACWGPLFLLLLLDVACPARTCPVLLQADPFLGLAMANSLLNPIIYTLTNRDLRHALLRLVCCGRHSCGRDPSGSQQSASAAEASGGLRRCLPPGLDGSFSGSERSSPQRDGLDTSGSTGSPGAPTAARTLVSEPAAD
S1P1/EDG1, sequence (P21453 whole entry): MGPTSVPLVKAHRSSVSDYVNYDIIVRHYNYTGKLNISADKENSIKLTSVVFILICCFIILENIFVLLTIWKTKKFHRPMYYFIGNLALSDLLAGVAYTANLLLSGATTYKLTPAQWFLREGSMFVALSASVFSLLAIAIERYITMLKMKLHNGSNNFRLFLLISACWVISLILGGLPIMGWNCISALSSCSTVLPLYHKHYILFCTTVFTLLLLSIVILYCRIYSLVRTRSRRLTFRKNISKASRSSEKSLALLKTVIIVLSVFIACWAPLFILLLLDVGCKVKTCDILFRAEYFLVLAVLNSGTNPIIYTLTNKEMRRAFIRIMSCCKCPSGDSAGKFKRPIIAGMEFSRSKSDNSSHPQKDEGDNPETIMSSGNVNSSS
T2 sequence (O95136 whole entry, species assumed): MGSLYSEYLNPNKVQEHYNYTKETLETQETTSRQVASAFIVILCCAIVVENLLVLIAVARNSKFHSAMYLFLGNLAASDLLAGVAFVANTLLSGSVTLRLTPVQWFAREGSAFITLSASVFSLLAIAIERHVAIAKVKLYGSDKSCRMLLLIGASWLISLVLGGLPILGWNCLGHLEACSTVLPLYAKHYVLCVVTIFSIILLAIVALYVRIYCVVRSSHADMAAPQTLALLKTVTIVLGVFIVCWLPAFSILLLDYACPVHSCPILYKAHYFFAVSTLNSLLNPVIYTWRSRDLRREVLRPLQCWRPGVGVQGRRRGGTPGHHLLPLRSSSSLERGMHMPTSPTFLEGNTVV

SMILES | pEC50 (S1P5) | Dose Producing 50% lymphopenia (peripheral T-cell counts) [mg/kg] | pEC50 (S1P1/EDG1; [2]) | pEC50 (S1P1/EDG1; [3]) | pEC50 (S1P2) | Dose Resulting in 10% increase in lung weight [1] [mg/kg] | TI 5 days [1, 4] | pEC50 (S1P4) | pEC50 (S1P3) | TI 14 days ([1]; therapeutic index: dose producing 10% lung weight increase / dose producing 50% T-cell depletion, 14 day toxicology study in rats)
CC(C)Oc1ccc(-c2nc(-c3cccc4c3CC[C@H]4NC(=O)N3CC(O)C3)no2)cc1C#N [Compound 234, (R)-N-(4-(5-(3 cyano-4-isopropoxyphenyl)-1,2,4-oxadiazol-3-yl)-2,3-dihydro-1H-inden-1-yl)-3-hydroxyazetidine-1-carboxamide] | 7.12 | 0.90 | 10.00 | 9.30 to 10.30 | < 5.00 | 21.3 | 24 | 6.13 | < 5.00 | 
COCCS(=O)(=O)N[C@@H]1CCc2c(-c3noc(-c4ccc(OC(C)C)c(C#N)c4)n3)cccc21 [Compound 163, (R)-N-(4-(5-(3 cyano-4-isopropoxyphenyl)-1,2,4-oxadiazol-3-yl)-2,3-dihydro-1H-inden-1-yl)-2-methoxyethanesulfonamide] | 7.30 | 0.07 | 10.05 | 9.30 to 10.30 | < 5.00 | 2.1 |  | < 5.00 | < 5.00 | 30
CC(C)Oc1ccc(-c2nc(-c3cccc4c3CC[C@@H]4NS(=O)(=O)CCO)no2)cc1C#N [Compound 187, (S)-N-(4-(5-(3-cyano-4-isopropoxyphenyl)-1,2,4-oxadiazol-3-yl)-2,3-dihydro-1H-inden-1-yl)-2-hydroxyethanesulfonamide] | 7.24 | 0.50 | 10.00 | 9.30 to 10.30 | < 5.00 | 5.0 | 10 | < 5.00 | < 5.00 | 
CC(C)Oc1ccc(-c2nc(-c3cccc4c3CC[C@@H]4NC(=O)N3CC(O)C3)no2)cc1C#N [Compound 235] | 7.40 | 2.00 | 10.00 | 9.30 to 10.30 | < 5.00 | 11.3 | 6 | < 5.00 | < 5.00 | 
COCCS(=O)(=O)N[C@H]1CCc2c(-c3noc(-c4ccc(OC(C)C)c(C#N)c4)n3)cccc21 [Compound 164, (S)-N-(4-(5-(3-cyano-4-isopropoxyphenyl)-1,2,4-oxadiazol-3-yl)-2,3-dihydro-1H-inden-1-yl)-2-methoxyethanesulfonamide] | 6.76 | 0.25 | 9.44 | 9.30 to 10.30 | < 5.00 | 5.0 | 20 | < 5.00 | < 5.00 | 
CCOc1ccc(-c2nc(-c3cccc4c3CCC4NCCO)no2)cc1OCC (racemic) [Compound 253, (+/−)-2-((4-(5-(3,4,diethoxyphenyl)-1,2,4-oxadiazol-3-yl)-2,3-dihydro-1H-inden-1-yl)amino)ethanol, reference compound] | 6.87 |  | 8.54 | 8.30 to 9.30 | < 6.00 |  |  | 5.49 | 5.37 | 
CC(C)Oc1ccc(-c2nc(-c3cccc4c3CC[C@H]4NC(=O)N3CCC[C@H](O)C3)no2)cc1C#N [Compound 215] |  |  |  | 8.30 to 9.30 |  |  |  |  |  | 
